The text below walks through data of US20240383852A1, “ANTI-VIRAL COMPOUNDS” (INFEX Therapeutics Limited, priority 2021, published 2024).

Series [1] deals with human Hep G2 cells (ATCC HB-8065). In words: Cytotoxicity in Hep G2 cells (CellTiter-Glo). The settings on record: Hep G2 cells, 100 μM test article, 24-hour exposure. The format is cell-based. (Cellular ATP, detected with luciferase, serves as a proxy for viable cell number.)
The subject of another series is SARS-CoV-2. In words: Anti-viral potency in VERO E6 cells (cytopathic viral activity, crystal violet). It is filed as cell-based. The settings on record: Severe acute respiratory syndrome coronavirus 2, Vero C1008, 48 h, read-out: SARS-COV-2 EC50 (μM). A general note: Damage to the host cells serves as the signal in cytopathic effect assays.
The target in another series is T1, SARS-CoV-2 PLpro (Severe acute respiratory syndrome coronavirus 2, UniProt P0DTD1).
T1 construct: containing 60 nM papain-like protease
In words: biochemical. To be noted: 60 nM papain-like protease, 50 μM Z-RLRGG-AMC, pH 7.5, 37° C.; read-out: SARS-CoV-2 PLpro IC50.

Molecules are shown by their SMILES. Some results are limits rather than exact numbers.

One may read the EC50 as the concentration that produces a half-maximal response. In general, IC50 refers to the concentration that inhibits the measured activity by half. Take `COc1cc(-c2cn(C)nc2C)cc([C@@H](C)NC(=O)c2cc(N3C[C@H]4C[C@@H]3CN4C)ccc2C)c1` [Example 230, N-[(1R)-1-[3-(1,3-Dimethylpyrazol-4-yl)-5-methoxy-phenyl]ethyl]-2-methyl-5-[(1R,4R)-5-methyl-2,5-diazabicyclo[2.2.1]heptan-2-yl]benzamide]: in series [1], the “% Cell Viability” value is 38.3%. Further, the EC50 in the series with SARS-CoV-2 was below 5 µM. Moreover, the IC50 at SARS-CoV-2 PLpro is below 2 µM.
In the same order, the values of `Cc1ccc(N2CCNCC2)cc1C(=O)N[C@H](C)c1cccc(-c2cnn(C)c2)c1` [Example 72, 2-Methyl-N-[(1R)-1-[3-(1-methylpyrazol-4-yl)phenyl]ethyl]-5-piperazin-1-yl-benzamide] are 79.0%, below 5 µM and below 2 µM.
In the same order, the values of `COc1cc(OC)c([C@@H](C)NC(=O)c2cc(N3CCN(C)CC3)ccc2C)cc1-c1cnn(C)c1` [Example 215, N-[(1R)-1-[2,4-Dimethoxy-5-(1-methylpyrazol-4-yl)phenyl]ethyl]-2-methyl-5-(4-methylpiperazin-1-yl)benzamide] are 80.1%, below 5 µM and below 2 µM.
In the same order, the values of `COc1cc(-c2cc(C(=O)N(C)C)n(C)c2)cc([C@@H](C)NC(=O)c2cc(N3CCN(C)CC3)ccc2C)c1` [Example 289, 4-[3-Methoxy-5-[(1R)-1-[[2-methyl-5-(4-methylpiperazin-1-yl)benzoyl]amino]ethyl]phenyl]-N,N,1-trimethyl-pyrrole-2-carboxamide] are 59.5%, below 5 µM and below 2 µM.
For the compound `COc1ccc([C@@H](C)NC(=O)c2cc(N3CCN(C)CC3)ccc2C)cc1-c1nccs1` [Example 251, N-[(1R)-1-(4-Methoxy-3-thiazol-2-yl-phenyl)ethyl]-2-methyl-5-(4-methylpiperazin-1-yl)benzamide], the “% Cell Viability” value in series [1] is 63.2%. Moreover, the EC50 in the series with SARS-CoV-2 was below 5 µM. For the same compound, the IC50 at SARS-CoV-2 PLpro is below 2 µM.
For `Cc1ccc(N2CCN(C)CC2)cc1C(=O)N[C@H](C)c1ccc(Cl)c(-c2cnn(C)c2)c1` [Example 252, N-[(1R)-1-[4-Chloro-3-(1-methylpyrazol-4-yl)phenyl]ethyl]-2-methyl-5-(4-methylpiperazin-1-yl)benzamide] the same measures were 49.4%, below 5 µM and below 2 µM.
Take `CCn1cc(-c2cccc([C@@H](C)NC(=O)c3cc(N4CCN(C)CC4)ccc3C)c2)cn1` [Example 64, N-[(1R)-1-[3-(1-Ethylpyrazol-4-yl)phenyl]ethyl]-2-methyl-5-(4-methylpiperazin-1-yl)benzamide]: the “% Cell Viability” value in series [1] amounted to 78.6%. Besides, the EC50 with SARS-CoV-2 is below 5 µM. Also, the IC50 at SARS-CoV-2 PLpro is below 2 µM.
As for `COc1cc(-c2cnn(C)c2)cc([C@@H](C)NC(=O)c2cc(N3CCNCC3)ccc2C)c1` [Example 235, N-[(1R)-1-[3-Methoxy-5-(1-methylpyrazol-4-yl)phenyl]ethyl]-2-methyl-5-piperazin-1-yl-benzamide], in series [1], the “% Cell Viability” value was 90.6%. Also, the EC50 with SARS-CoV-2 was below 5 µM. The IC50 at SARS-CoV-2 PLpro is below 2 µM.
In the same order, the values of `COc1ccc(-c2cnn(C)c2)cc1[C@@H](C)NC(=O)c1cc(N2CCN(C)CC2)ccc1C` [Example 239, N-[(1R)-1-[2-Methoxy-5-(1-methylpyrazol-4-yl)phenyl]ethyl]-2-methyl-5-(4-methylpiperazin-1-yl)benzamide] are 101.6%, below 5 µM and below 2 µM.
On to `COc1cc(-c2cnn(C3CC3)c2)cc([C@@H](C)NC(=O)c2cc(N3CCN(C)CC3)ccc2C)c1` [Example 221, N-[(1R)-1-[3-(1-Cyclopropylpyrazol-4-yl)-5-methoxy-phenyl]ethyl]-2-methyl-5-(4-methylpiperazin-1-yl)benzamide], for which the “% Cell Viability” value in series [1] was found to be 74.9%. The EC50 with SARS-CoV-2 was below 5 µM. Moreover, the IC50 at SARS-CoV-2 PLpro was below 2 µM.
